From publication PMC9737981, “Molecular Hybridization Strategy on the Design, Synthesis, and Structural Characterization of Ferrocene-N-acyl Hydrazones as Immunomodulatory Agents” (Molecules, 2022)

Columns and labels:
[1] = test system: IFN-γ; assay: IFN-γ production by splenocytes stimulated with concanavalin A (ELISA); assay type: cell-based, BALB/c mice; conditions: 10 µM; Con A 5 µg/mL; 24 h
Protocol: (§1) BALB/c splenocyte suspensions were prepared in a DMEM medium supplemented with FBS and gentamicin. Splenocytes (5 × 10^6 cells/well) were plated in 24-well plates, in triplicate, and stimulated or not with concanavalin A (Con A; 5 µg/mL, Sigma-Aldrich). To evaluate lymphocyte function, splenocytes were activated in the absence or presence of various concentrations of SintMed149 and SintMed150 (10, 20, and 40 µM). After 24 h of treatment, cell-free supernatants were collected and kept at −80 °C until use.
(§2) The dosage of cytokines IFN-γ, IL-1β, IL-2, IL-4, and TNFα was performed from the supernatant of peritoneal macrophages or splenocytes were determined by enzyme-linked immunosorbent assay (ELISA), using DuoSet kits from R&D Systems, according to the manufacturer’s instructions. Nitric oxide production was estimated in macrophage culture supernatants harvested at 24 h using the Griess method for nitrite quantification.

[2] = test system: nitric oxide production; assay: Inhibition of nitric oxide (nitrite) production in J774 macrophages stimulated with LPS + IFN-γ (Griess); assay type: cell-based; conditions: for Inhibition of NO (%) Production at 40 μM: 24 h incubation with compounds and LPS plus IFN-γ
Protocol: (§3) Immortalized J774 macrophages (2 × 10^5 cells/well) or peritoneal macrophages (2 × 10^5 cells/well) were incubated in 96-well plates in a DMEM medium supplemented with 10% FBS and 50 µg/mL of gentamicin, in triplicate, stimulated or not with LPS (500 ng/mL) and IFN-γ (5 ng/mL), and treated or not with different concentrations of the evaluated ferrocenyl-N-acyl hydrazones. The cells were incubated for 4 or 24 h at 37 °C and 5% CO2. Cell-free supernatants were collected after 4 h (for TNFα measurement) and 24 h (for IL-1β, TNFα, and nitrite quantifications), and kept at −80 °C until use.
as §2

[3] = test system: IL-2; assay: IL-2 production by splenocytes stimulated with concanavalin A (ELISA); assay type: cell-based, BALB/c mice; conditions: Con A 5 µg/mL, 24 h
Protocol: as §1, §2

[4] = test system: nitrite production; assay: Nitrite production by activated peritoneal macrophages (Griess); assay type: cell-based, BALB/c mice; conditions: LPS + IFN-γ
Protocol: as §3, §2

[5] = test system: peritoneal macrophages; assay: Cytotoxicity to peritoneal macrophages activated with LPS + IFNγ (Alamar Blue); assay type: cell-based, BALB/c mice
Protocol: The second set of experiments was performed using peritoneal macrophages activated with LPS (500 ng/mL, Sigma-Aldrich) and IFNγ (5 ng/mL; Sigma-Aldrich).
Peritoneal exudate macrophages were obtained by washing, with a cold DMEM medium, the peritoneal cavity of BALB/c mice 4–5 days after injection of 3% thioglycolate (Sigma-Aldrich) in saline (1.5 mL per mouse). Cells were seeded into 96-well plates at a cell density of 1 × 10^5 cells/well in a DMEM medium supplemented with 10% FBS and 50 µg/mL of gentamicin and incubated for 24 h at 37 °C and 5% CO2. […] At the end of treatment, 20 µL/well of Alamar Blue (Invitrogen) were added to the plates for 10 h. Colorimetric readings were performed at 570 and 600 nm using a SpectraMax 190 Microplate Reader (Molecular Devices, Sunnyvale, CA, USA).

[6] = test system: TNFα; assay: TNFα production by peritoneal macrophages stimulated with LPS + IFN-γ (ELISA); assay type: cell-based, BALB/c mice
Protocol: as §3, §2

[7] = test system: carrageenan-induced acute peritonitis; assay: Carrageenan-induced acute peritonitis (neutrophil migration); assay type: in vivo, BALB/c mice; conditions: 25 mg/kg; compared to vehicle
Protocol: Next, animals were challenged with a 250 μL injection of carrageenan (1 mg/mL; intraperitoneal route). After 4 h, animals were euthanized and peritoneal exudates were harvested by peritoneal lavage using 2.5 mL of saline solution. Cells were centrifuged at 400× g for 10 min, at 4 °C. The pellet was resuspended in saline (1 mL). Total leukocytes in the peritoneal fluid were determined in a Neubauer chamber after dilution in Trypan blue stain. Differential counting of neutrophils was carried out in rapid panotype-stained cytospin preparations. A differential count of 300 cells was made in a blinded fashion and according to standard morphologic criteria.

[8] = test system: IL-4; assay: IL-4 production by splenocytes stimulated with concanavalin A (ELISA); assay type: cell-based, BALB/c mice; conditions: Con A 5 µg/mL, 24 h
Protocol: as §1, §2

[9] = test system: LPS-induced endotoxic shock; assay: LPS-induced endotoxin shock (survival); assay type: in vivo, BALB/c mice; conditions: 25 mg/kg, lethal LPS, monitored 4 days
Protocol: Groups of five male BALB/c mice (4 weeks of age) were used for the LPS lethality assays. Mice were treated with different doses of SintMed150 (50 or 100 mg/kg), dexamethasone (25 mg/kg), or vehicle (solution containing 30% sorbitol, 10% Tween 80, and 60% saline), by intraperitoneal (i.p.) route. Ninety minutes later, animals were challenged with 600 µg of LPS (from serotype 0111:B4 Escherichia coli, Sigma-Aldrich) in saline, by i.p. route. The survival rate was then monitored daily during 4 days.

[10] = test system: IL-1β; assay: IL-1β production by peritoneal macrophages stimulated with LPS + IFN-γ (ELISA); assay type: cell-based, BALB/c mice
Protocol: as §3, §2

[11] = test system: J774 macrophages; assay: Cytotoxicity to J774 macrophages (Alamar Blue); assay type: cell-based; conditions: 72 h, read-out: CC50 (µM) JJ74
Protocol: J774 macrophages were seeded into 96-well plates at a cell density of 1 × 10^4 cells/well in a DMEM medium supplemented with 10% fetal bovine serum (FBS; GIBCO) and 50 µg/mL of gentamicin (Life Technologies, Carlsbad, CA, USA) and incubated for 24 h at 37 °C and 5% CO2. After that time, each compound was added in six concentrations (50–1.56 µM), in triplicate, and incubated for 72 h. At the end of treatment, 20 µL/well of Alamar Blue (Invitrogen) was added to the plates for 4 h. […]
As a positive control, gentian violet was used at concentrations ranging from 0.04 to 10 µM. CC50 values were calculated using data from three independent experiments.
To determine the cytotoxicity concentration of 50% of J774 macrophages (CC50), we used non-linear regression. One-way analysis of variance and Newman–Keuls multiple comparison tests were employed by using Graph Pad Prism version 8.0.1 (Graph Pad Software; San Diego, CA, USA). Differences were considered significant when the values of p were < 0.05. The data are representative of at least two or three experiments.

| SMILES | Inhibition of NO (%) Production at 40 μM [2] | CC50 [11] | also measured |
| --- | --- | --- | --- |
| C[C@@H]1C[C@H]2[C@@H]3CCC4=CC(=O)C=C[C@]4(C)[C@@]3(F)[C@@H](O)C[C@]2(C)[C@@]1(O)C(=O)CO [Dexamethasone, reference compound] | – | – | IFN-γ levels [1]: significantly reduced; inhibition at 40 µM ([2]; Mus musculus, J774, 24 h incubation with compounds and LPS plus IFN-γ, read-out: Inhibition of NO (%) Production at 40 μM): 64.9%; IL-2 levels ([3]; 10 µM): significantly reduced; Nitrite production ([4]; 10 µM): promoted the reduction; Cytotoxicity (cell viability) in peritoneal macrophages ([5]; 40 µM): not cytotoxic; TNF production ([6]; 10 µM): promoted the reduction; Reduction in neutrophil migration [7]: 55%; IL-4 levels ([8]; 10 µM): significantly reduced; Survival rate [9]: 83.3%; IL-1β production ([10]; 10 µM): promoted the reduction |
| O=C(N/N=C/[c-]1cccc1)c1ccccc1.[Fe+2].c1cc[cH-]c1 [SintMed141, (E)-N′-(Ferrocenylmethylidene)benzohydrazide] | 19.7 (±3.0) % | > 50 µM | – |
| O=C(N/N=C/[c-]1cccc1)c1ccccc1Cl.[Fe+2].c1cc[cH-]c1 [SintMed142, (E)-N′-(Ferrocenylmethylidene)-2-chlorobenzohydrazide] | 49.3 (±0.8) % | > 50 µM | – |
| O=C(N/N=C/[c-]1cccc1)c1ccco1.[Fe+2].c1cc[cH-]c1 [SintMed143, (E)-N′-(Ferrocenylmethylidene)furan-2-ylcarbohydrazide] | 49.2 (±1.9) % | > 50 µM | – |
| N#Cc1ccc(C(=O)N/N=C/[c-]2cccc2)cc1.[Fe+2].c1cc[cH-]c1 [SintMed144, (E)-N′-(Ferrocenylmethylidene)-4-cyanobenzohydrazide] | 55.2 (±0.6) % | > 50 µM | – |
| O=C(N/N=C/[c-]1cccc1)c1ccc2ccccc2n1.[Fe+2].c1cc[cH-]c1 [SintMed145, (E)-N′-(Ferrocenylmethylidene)quinolin-2-ylcarbohydrazide] | 49.6 (±2.6) % | > 50 µM | – |
| CC(C)(C)c1cc(C(=O)N/N=C/[c-]2cccc2)cc(C(C)(C)C)c1O.[Fe+2].c1cc[cH-]c1 [SintMed146, (E)-N′-(Ferrocenylmethylidene)-3,5-tert-butyl-4-hydroxybenzohydrazide] | 14.4 (±2.2) % | > 50 µM | – |
| O=C(N/N=C/[c-]1cccc1)c1ccc(C(F)(F)F)cc1.[Fe+2].c1cc[cH-]c1 [SintMed147, (E)-N′-(Ferrocenylmethylidene)-4-(trifluoromethyl)benzohydrazide] | 59.9 (±0.3) % | > 50 µM | – |
| Cc1ccccc1C(=O)N/N=C/[c-]1cccc1.[Fe+2].c1cc[cH-]c1 [SintMed148, (E)-N′-(Ferrocenylmethylidene)-2-methylbenzohydrazide] | 56.6 (±2.1) % | > 50 µM | – |
| O=C(N/N=C/[c-]1cccc1)c1ccccc1Br.[Fe+2].c1cc[cH-]c1 [SintMed149, (E)-N′-(Ferrocenylmethylidene)-2-bromobenzohydrazide] | 71.7 (±3.6) % | > 50 µM | IL-2 levels ([3]; 10, 20, 40 µM): significant and concentration-dependent reduction; Nitrite production ([4]; 10, 20 and 40 µM, p < 0.05): inhibited, in a concentration-dependent manner; Cytotoxicity (cell viability) in peritoneal macrophages ([5]; all concentrations tested (10, 20, 40 µM)): not cytotoxic; TNF production ([6]; 10, 20 and 40 µM, 4 h, p < 0.05): inhibitory effect; IL-4 levels ([8]; 10, 20, 40 µM): did not significantly reduce; IL-1β production ([10]; 10, 20 and 40 µM, 24 h, p < 0.05): inhibitory effect |
| O=C(N/N=C/[c-]1cccc1)c1cc(O)c(O)c(O)c1.[Fe+2].c1cc[cH-]c1 [SintMed151, (E)-N′-(Ferrocenylmethylidene)-3,4,5-trihydroxybenzohydrazide] | 25.2 (±2.1) % | > 50 µM | – |
| COc1cc(C(=O)N/N=C/[c-]2cccc2)cc(OC)c1OC.[Fe+2].c1cc[cH-]c1 [SintMed152, (E)-N′-(Ferrocenylmethylidene)-3,4,5-trimethoxybenzohydrazide] | 55.5 (±1.7) % | > 50 µM | – |
| COc1cc(C(=O)N/N=C/[c-]2cccc2)cc(OC)c1OC.[Fe+2].c1cc[cH-]c1 [SintMed153, (E)-N′-(Ferrocenylmethylidene)-3,4,5-trimethoxybenzohydrazide] | 43.7 (±3.3) % | > 50 µM | – |
| O=C(N/N=C/[c-]1cccc1)c1cccc(Cl)c1.[Fe+2].c1cc[cH-]c1 [SintMed154, (E)-N′-(Ferrocenylmethylidene)-3-chlorobenzohydrazide] | 45.2 (±2.1) % | > 50 µM | – |
| O=C(N/N=C/[c-]1cccc1)c1cccc2ccccc12.[Fe+2].c1cc[cH-]c1 [SintMed155, (E)-N′-(Ferrocenylmethylidene)-1-naphtylcarbohydrazide] | 35.6 (±0.7) % | > 50 µM | – |
| COc1ccc(C(=O)N/N=C/[c-]2cccc2)c(OC)c1.[Fe+2].c1cc[cH-]c1 [SintMed156, (E)-N′-(Ferrocenylmethylidene)-2,4-dimethoxybenzohydrazide] | 46.7 (±3.0) % | > 50 µM | – |
